According to patent publication US8207176B2 (Glaxo Group Limited, priority 2005, dated 2012):

Key:
[1] = target: T1, Recombinant human p38α (MKK6-activated) (Homo sapiens, UniProt Q16539); assay: Time-resolved fluorescence resonance energy transfer (TR-FRET) kinase assay (standard or low volume); assay type: biochemical; design: key: Compounds are considered active in this assay if they demonstrate a pIC50 of greater than 4.6 up to about a pIC50 of greater than 10.0; settings: MKK6-activated p38α 100 pM, GST-ATF2 400 nM, 120 minutes at room temperature; either assay format
T1 construct: His; made in house
T1 sequence (Q16539 whole entry): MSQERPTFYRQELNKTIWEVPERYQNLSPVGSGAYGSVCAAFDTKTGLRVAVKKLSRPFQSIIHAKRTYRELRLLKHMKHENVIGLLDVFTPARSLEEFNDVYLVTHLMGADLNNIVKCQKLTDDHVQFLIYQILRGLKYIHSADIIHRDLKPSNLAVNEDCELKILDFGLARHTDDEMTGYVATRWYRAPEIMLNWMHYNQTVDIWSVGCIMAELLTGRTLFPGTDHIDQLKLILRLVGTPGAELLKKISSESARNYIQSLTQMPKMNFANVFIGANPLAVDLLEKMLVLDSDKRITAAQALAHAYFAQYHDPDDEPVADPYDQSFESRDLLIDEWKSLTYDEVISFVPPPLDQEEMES
Procedure: It is noted that there are two assay formats shown above for the Fluorescence anisotropy kinase binding assay. The only difference between these two assays is the volume used and the plate type. […] The results described herein may have been performed in either assay format and are not differentiated as to which. […] TR-FRET Assay Time-Resolved Fluorescence Resonance Energy Transfer Kinase Standard Assay Recombinant human p38α was expressed as a His-tagged protein. To activate this protein, 3 μM unactivated p38α was incubated in 200 mM Hepes pH 7.4, 625 mM NaCl, 1 mM DTT with 27 nM active MKK6 (Upstate), 1 mM ATP and 10 mM MgCl2 The activity of the MKK6-activated p38α was assessed using a time-resolved fluorescence resonance energy transfer (TR-FRET) assay. Biotinylated-GST-ATF2 (residues 19-96, 400 nM final), ATP ([…]) and MgCl2 (5 mM final) in assay buffer (40 mM HEPES pH 7.4, 1 mM DTT) were added to wells containing 1 ul of various concentrations of compound or DMSO vehicle (3% final) in NUNC 384 well black plate. The reaction was initiated by the addition of MKK6-activated p38 (100 pM final) to give a total volume of 30 ul. The reaction was incubated for 120 minutes at room temperature, then terminated by the addition of 15 μl of 100 mM EDTA pH 7.4. Detection reagent (15 μl) in buffer (100 mM HEPES pH 7.4, 150 mM NaCl, 0.1% w/v BSA, 1 mM DTT) containing antiphosphothreonine-ATF2-71 polyclonal antibody (Cell Signalling Technology, Beverly Mass., USA) labelled with W-1024 europium chelate (Wallac OY, Turku, Finland), and APC-labelled streptavidin (Prozyme, San Leandro, Calif., USA) was added and the reaction was further incubated for 60 minutes at room temperature. The degree of phosphorylation of GST-ATF2 was measured using a Packard Discovery plate reader (Perkin-Elmer Life Sciences, Pangbourne, UK) as a ratio of specific 665 nm energy transfer signal to reference europium 620 nm signal. Time-Resolved Fluorescence Resonance Energy Transfer Kinase Low Volume Assay Recombinant human p38α was expressed as a His-tagged protein. To activate this protein, 3 μM unactivated p38α was incubated in 200 mM Hepes pH7.4, 625 mM NaCl, 1 mM DTT with 27 nM active MKK6 (Upstate), 1 mM ATP and 10 mM MgCl2 The activity of the MKK6-activated p38α was assessed using a time-resolved fluorescence resonance energy transfer (TR-FRET) assay. Biotinylated-GST-ATF2 (residues 19-96, 400 nM final), ATP (125 μM final) and MgCl2 ([…]) in assay buffer (40 mM HEPES pH 7.4, 1 mM DTT) were added to wells containing 0.1 μl of various concentrations of compound or DMSO vehicle (1.7% final) in Greiner low volume 384 well black plate. The reaction was initiated by the addition of MKK6-activated p38α (100 pM final) to give a total volume of 6 μl. The reaction was incubated for 120 minutes at room temperature, then terminated by the addition of 3 μl of detection reagent in buffer (100 mM HEPES pH 7.4, 150 mM NaCl, 0.1% w/v BSA, 1 mM DTT, 100 mM EDTA) containing antiphosphothreonine-ATF2-71 polyclonal antibody (Cell Signalling Technology, Beverly Mass., USA) labelled with W-1024 europium chelate (Wallac OY, Turku, Finland), and APC-labelled streptavidin (Prozyme, San Leandro, Calif., USA). The reaction was further incubated for 60 minutes at room temperature. The degree of phosphorylation of GST-ATF2 was measured using a BMG Rubystar plate reader (BMG, UK) as a ratio of specific 665 nm energy transfer signal to reference europium 620 nm signal. It is noted that there are two assay formats shown above for the Time-resolved fluorescence resonance energy transfer kinase assay. The only difference between these two assays is the volume used and the plate type. […] The results described herein may have been performed in either assay format and are not differentiated as to which. […] For purposes herein the HTRF assay and the Fluorescence anisotropy kinase binding assay: […]

[2] = system: influx of neutrophils to the lung in LPS-challenged rats; assay: Rat LPS neutrophilia model; assay type: in vivo; settings: intratracheal, LPS aerosol 100 ug/ml 15 min, lavage 4 hours later, in at least one of the range of conditions tested, significant p<0.05, nonsignificant p>0.05
Summary of the method: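 Compound was given intratracheally (200 ul, suspension or dry powder) 15 min–24 hours before a 15 min aerosol of LPS (100 ug/ml). Bronchoalveolar lavage was taken 4 hours after challenge for differential cell counts. Values are % inhibition of neutrophils versus no-compound controls at a given concentration and pretreat time.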

Row | Structure (SMILES) | melting point | pIC50, reported as active [1] | inhibition of neutrophilia (neutrophil levels in lung lavage relative to no compound controls) [2]
1 | Cc1ccc(C(=O)NC2CC2)cc1-c1nc(NC2CC(C)(C)NC(C)(C)C2)nc2c1ccc(=O)n2-c1c(F)cccc1F [21(c)] | 326.3 to 327.9 °C |  | 
2 | Cc1ccc(C(=O)NCc2ccccc2)cc1-c1nc(NCc2ncc[nH]2)nc2c1ccc(=O)n2-c1c(F)cccc1F [116(c), 3-{8-(2,6-difluorophenyl)-2-[(1H-imidazol-2-ylmethyl)amino]-7-oxo-7,8-dihydropyrido[2,3-d]pyrimidin-4-yl}-4-methyl-N-(phenylmethyl)benzamide] | 185 to 190 °C (dec.) |  | 
3 | Cc1ccc(C(=O)NC(C)C)cc1-c1nc(N2CCC(N3CCC(C)CC3)CC2)nc2c1ccc(=O)n2-c1c(F)cccc1F [163(c), 3-[8-(2,6-difluorophenyl)-2-(4-methyl-1,4′-bipiperidin-1′-yl)-7-oxo-7,8-dihydropyrido[2,3-d]pyrimidin-4-yl]-4-methyl-N-(1-methylethyl)benzamide] |  | active | statistically nonsignificant inhibition
4 | CCCNCCNc1nc(-c2cc(C(=O)NC3CC3)ccc2C)c2ccc(=O)n(-c3c(F)cccc3F)c2n1 [Example 24, N-cyclopropyl-3-(8-(2,6-difluorophenyl)-7-oxo-2-{[2-(propylamino)ethyl]amino}-7,8-dihydropyrido[2,3-d]pyrimidin-4-yl)-4-methylbenzamide] | 120 to 134 °C |  | statistically nonsignificant inhibition
5 | Cc1ccc(C(=O)NC2CC2)cc1-c1nc(NCCN(C)C)nc2c1ccc(=O)n2-c1c(F)cccc1F [Example 25] | 214.7 to 217.5 °C |  | statistically nonsignificant inhibition
6 | Cc1ccc(NC(=O)c2ccsc2)cc1-c1nc(N2CCC(N)CC2)nc2c1ccc(=O)n2-c1c(F)cccc1F [Example 32, N-{3-[2-(4-amino-1-piperidinyl)-8-(2,6-difluorophenyl)-7-oxo-7,8-dihydropyrido[2,3-d]pyrimidin-4-yl]-4-methylphenyl}-3-thiophenecarboxamide] | 183.8 to 187.9 °C |  | statistically nonsignificant inhibition
7 | Cc1ccc(C(=O)NC(C)C)cc1-c1nc(N(C)CCCN(C)C)nc2c1ccc(=O)n2-c1c(F)cccc1F [Example 34, 3-{8-(2,6-difluorophenyl)-2-[[3-(dimethylamino)propyl](methyl)amino]-7-oxo-7,8-dihydropyrido[2,3-d]pyrimidin-4-yl}-4-methyl-N-(1-methylethyl)benzamide] |  | active | statistically significant inhibition
8 | CNCCNc1nc(-c2cc(C(=O)NC(C)C)ccc2C)c2ccc(=O)n(-c3c(F)cccc3F)c2n1 [Example 57, 3-(8-(2,6-difluorophenyl)-2-{[2-(methylamino)ethyl]amino}-7-oxo-7,8-dihydropyrido[2,3-d]pyrimidin-4-yl)-4-methyl-N-(1-methylethyl)benzamide] |  | active | statistically significant inhibition
9 | Cc1ccc(C(=O)Nc2ccc(F)cc2)cc1-c1nc(NC2CC(C)(C)NC(C)(C)C2)nc2c1ccc(=O)n2-c1c(F)cccc1F [Example 66, 3-{8-(2,6-difluorophenyl)-7-oxo-2-[(2,2,6,6-tetramethyl-4-piperidinyl)amino]-7,8-dihydropyrido[2,3-d]pyrimidin-4-yl}-N-(4-fluorophenyl)-4-methylbenzamide] |  | active | statistically significant inhibition
10 | Cc1ccc(C(=O)Nc2ccc(F)cc2)cc1-c1nc(NCc2ncc[nH]2)nc2c1ccc(=O)n2-c1c(F)cccc1F [Example 78] |  | active | statistically significant inhibition
11 | CCCNC(=O)c1ccc(C)c(-c2nc(N(C)CCCN(C)C)nc3c2ccc(=O)n3-c2c(F)cccc2F)c1 [Example 104, 3-{8-(2,6-difluorophenyl)-2-[[3-(dimethylamino)propyl](methyl)amino]-7-oxo-7,8-dihydropyrido[2,3-d]pyrimidin-4-yl}-4-methyl-N-propylbenzamide] | 104 to 109 °C |  | statistically significant inhibition
12 | CCCNC(=O)c1ccc(C)c(-c2nc(NCCN(C)C(=O)OC(C)(C)C)nc3c2ccc(=O)n3-c2c(F)cccc2F)c1 [Example 106, 1,1-dimethylethyl {2-[(8-(2,6-difluorophenyl)-4-{2-methyl-5-[(propylamino)carbonyl]phenyl}-7-oxo-7,8-dihydro-pyrido[2,3-d]pyrimidin-2-yl)amino]ethyl}methylcarbamate] | 115 to 118 °C |  | 
13 | Cc1ccc(C(=O)Nc2nccs2)cc1-c1nc(NCCN(C)C)nc2c1ccc(=O)n2-c1c(F)cccc1F [Example 109, 3-(8-(2,6-difluorophenyl)-2-{[2-(dimethylamino)ethyl]amino}-7-oxo-7,8-dihydropyrido[2,3-d]pyrimidin-4-yl)-4-methyl-N-1,3-thiazol-2-ylbenzamide] |  | active | statistically significant inhibition
14 | Cc1ccc(C(=O)Nc2ccc(F)cc2)cc1-c1nc(NCCN(C)C)nc2c1ccc(=O)n2-c1c(F)cccc1F [Example 112, 3-(8-(2,6-difluorophenyl)-2-{[2-(dimethylamino)ethyl]amino}-7-oxo-7,8-dihydropyrido[2,3-d]pyrimidin-4-yl)-N-(4-fluorophenyl)-4-methylbenzamide] |  | active | statistically nonsignificant inhibition
15 | Cc1ccc(C(=O)NC(C)C)cc1-c1nc(NCCN(C)C)nc2c1ccc(=O)n2-c1c(F)cccc1F [Example 117, 3-(8-(2,6-difluorophenyl)-2-{[2-(dimethylamino)ethyl]amino}-7-oxo-7,8-dihydropyrido[2,3-d]pyrimidin-4-yl)-4-methyl-N-(1-methylethyl)benzamide] |  | active | statistically significant inhibition
16 | CCC(C)NC(=O)c1ccc(C)c(-c2nc(NCCCN(CC)CC)nc3c2ccc(=O)n3-c2c(F)cccc2F)c1 (centres unmarked) [Example 162, 3-[2-{[3-(diethylamino)propyl]amino}-8-(2,6-difluorophenyl)-7-oxo-7,8-dihydropyrido[2,3-d]pyrimidin-4-yl]-4-methyl-N-(1-methylpropyl)benzamide] |  | active | statistically nonsignificant inhibition
